# Like-named read-outs stand apart in the source and are kept apart here.
# Biological target: T1, V600E full-length B-Raf (Homo sapiens, UniProt P15056, V600E)
# T1 construct: 1 μM FSBA-MEK and 20 nM V600E full-length B-Raf; made in house; host or cells: sf9 insect cells (baculovirus)
# Assay: B-Raf IC50 Assay (B-RAF V600E inhibition assay, Example A)
# Format: biochemical
# Text: Determining the activity of Raf in the sample is possible by a number of direct and indirect detection methods (US 2004/0082014). Activity of human recombinant B-Raf protein may be assessed in vitro by assay of the incorporation of radio labeled phosphate to recombinant MAP kinase (MEK), a known physiologic substrate of B-Raf, according to US 2004/0127496 and WO 03/022840. The activity/inhibition of V600E full-length B-Raf was estimated by measuring the incorporation of radio labeled phosphate from [γ-33P]ATP into FSBA-modified wild-type MEK (see Example A).
# Activity of human recombinant B-Raf protein may be assessed in vitro by assay of the incorporation of radio labeled phosphate to recombinant MAP kinase (MEK), a known physiologic substrate of B-Raf, according to U.S. Patent Appl. Publication No. 2004/0127496 and WO 03/022840. Catalytically active human recombinant B-Raf protein is obtained by purification from sf9 insect cells infected with a human B-Raf recombinant baculovirus expression vector.
# The activity/inhibition of V600E full-length B-Raf was estimated by measuring the incorporation of radio labeled phosphate from [γ-33P]ATP into FSBA-modified wild-type MEK. The […] assay mixtures contained 25 mM Na Pipes, pH 7.2, 100 mM KCl, 10 mM MgCl2, 5 mM β-glycerophosphate, 100 μM Na Vanadate, 4 μM ATP, 500 nCi [γ-33P]ATP, 1 μM FSBA-MEK and 20 nM V600E full-length B-Raf. Incubations were carried out at 22° C. in a Costar 3365 plate (Corning). Prior to the assay, the B-Raf and FSBA-MEK were preincubated together in assay buffer at 1.5× (20 μL of 30 nM and 1.5 μM, respectively) for 15 minutes, and the assay was initiated by the addition of 10 μL of […]. Following the 60-minute incubation, the assay mixtures were quenched by the addition of 100 μL of 25% TCA, the plate was mixed on a rotary shaker for 1 minute, and the product was captured on a Perkin-Elmer GF/B filter plate using a Tomtec Mach III Harvester. After sealing the bottom of the plate, 35 μL of Bio-Safe II (Research Products International) scintillation cocktail were added to each well and the plate was top-sealed and counted in a Topcount NXT (Packard).
# [1] = B-Raf V600E assay of Example A: less than about 1 μM, read-out: IC50
# [2] = incorporation of radio labeled phosphate from [γ-33P]ATP into FSBA-modified wild-type MEK, 4 μM ATP, 20 nM V600E full-length B-Raf, 60-minute incubation, 22° C., read-out: BRAF V600E IC50
# [3] = B-Raf V600E assay of Example A: less than 100 nM, read-out: IC50
# T1 sequence (P15056 whole entry V600E): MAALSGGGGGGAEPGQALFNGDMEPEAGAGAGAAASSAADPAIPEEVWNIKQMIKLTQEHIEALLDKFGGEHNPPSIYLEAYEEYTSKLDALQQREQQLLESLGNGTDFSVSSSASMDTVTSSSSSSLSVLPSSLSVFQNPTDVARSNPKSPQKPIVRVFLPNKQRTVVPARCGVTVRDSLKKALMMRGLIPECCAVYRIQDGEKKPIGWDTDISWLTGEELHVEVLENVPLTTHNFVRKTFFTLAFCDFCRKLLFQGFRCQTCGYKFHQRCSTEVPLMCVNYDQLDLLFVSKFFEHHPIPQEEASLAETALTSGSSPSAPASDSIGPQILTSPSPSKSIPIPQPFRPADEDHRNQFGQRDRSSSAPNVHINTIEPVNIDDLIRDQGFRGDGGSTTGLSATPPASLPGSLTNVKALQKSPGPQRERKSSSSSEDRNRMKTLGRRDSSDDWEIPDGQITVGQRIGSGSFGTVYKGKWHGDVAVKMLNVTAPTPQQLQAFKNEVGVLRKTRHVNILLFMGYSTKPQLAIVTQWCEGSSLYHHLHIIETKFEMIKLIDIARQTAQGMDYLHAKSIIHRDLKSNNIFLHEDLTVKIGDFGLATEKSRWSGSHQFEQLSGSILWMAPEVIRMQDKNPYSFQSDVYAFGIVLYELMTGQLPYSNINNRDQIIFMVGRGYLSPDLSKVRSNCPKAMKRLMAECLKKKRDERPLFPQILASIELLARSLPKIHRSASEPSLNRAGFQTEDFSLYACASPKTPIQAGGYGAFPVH
Compound,IC50 [1] [nM],IC50 [2] [nM],IC50 [3] [nM]
"CCCS(=O)(=O)Nc1ccc(Cl)c(NC(=O)c2csc3c(NC4CCNCC4)ncnc23)c1Cl [Example 79, 4-(Piperidin-4-ylamino)-thieno[3,2-d] pyrimidine-7-carboxylic acid [2,6-dichloro-3-(propane-1-sulfonyl-amino)-phenyl]amide]",< 1000,159,–
"O=C(Nc1c(Cl)ccc(NS(=O)(=O)CCCF)c1F)c1nsc2cncnc12 [Example 112, Isothiazolo[4,5-d] pyrimidine-3-carboxylic acid [6-chloro-2-fluoro-3-(3-fluoro-propane-1-sulfonylamino)-phenyl]-amide]",< 1000,7.29,< 100
"CCCS(=O)(=O)Nc1ccc(Cl)c(NC(=O)c2csc3cncnc23)c1Cl [Example 107, Thieno[3,2-d]pyrimidine-7-carboxylic acid [2,6-dichloro-3-(propane-1-sulfonylamino)-phenyl]-amide]",< 1000,9.6,< 100
"CCCS(=O)(=O)Nc1cc(F)c(F)c(NC(=O)c2csc3c(NC4CC(F)(F)C4)ncnc23)c1F [Example 93, 4-(3,3-Difluoro-cyclobutyl-amino)-thieno[3,2-d] pyrimidine-7-carboxylic acid [2,3,6-trifluoro-5-(propane-1-sulfonyl-amino)-phenyl]-amide]",< 1000,118,–
"CCCS(=O)(=O)Nc1ccc(Cl)c(NC(=O)c2csc3c(NCCF)ncnc23)c1Cl [Example 74, 4-(2-Fluoro-ethylamino)-thieno[3,2-d] pyrimidine-7-carboxylic acid [2,6-dichloro-3-(propane-1-sulfonyl-amino)-phenyl]amide]",< 1000,0.5,< 100

# The next lines start with the values.
IC50 [1] [nM],IC50 [2] [nM],IC50 [3] [nM],Compound
< 1000,0.72,< 100,"Nc1ncnc2c(C(=O)Nc3c(F)c(F)cc(NS(=O)(=O)CCCF)c3F)csc12 [Example 10, 4-Amino-thieno[3,2-d]pyrimidine-7-carboxylic acid[2,3,6-trifluoro-5-(3-fluoro-propane-1-sulfonylamino)-phenyl]-amide]"
< 1000,26,< 100,"CCCS(=O)(=O)Nc1ccc(F)c(NC(=O)c2csc3c(C(F)F)ncnc23)c1F [Example 42, 4-Difluoromethyl-thieno[3,2-d]pyrimidine-7-carboxylic acid [2,6-difluoro-3-(propane-1-sulfonylamino)-phenyl]-amide]"
< 1000,1.4,< 100,"CCCS(=O)(=O)Nc1cc(F)cc(NC(=O)c2csc3c(N)ncnc23)c1Cl [Example 17, 4-Amino-thieno[3,2-d] pyrimidine-7-carboxylic acid [2-chloro-5-fluoro-3-(propane-1-sulfonyl-amino)-phenyl]-amide]"
< 1000,3,< 100,"CCCS(=O)(=O)Nc1ccc(F)c(NC(=O)c2sc(C)c3c(N)ncnc23)c1F [Example 99, 4-Amino-5-methyl-thieno[3,4-a]pyrimidine-7-carboxylic acid [2,6-difluoro-3-(propane-1-sulfonylamino)-phenyl]-amide]"
< 1000,35.4,< 100,"CCCS(=O)(=O)Nc1ccc(F)c(NC(=O)c2csc3c(Nc4ccccc4)ncnc23)c1F [Example 63, 4-Phenylamino-thieno[3,2-d]pyrimidine-7-carboxylic acid [2,6-difluoro-3-(propane-1-sulfonylamino)-phenyl]-amide]"
< 1000,0.89,< 100,"Nc1ncnc2c(C(=O)Nc3c(F)ccc(NS(=O)(=O)c4ccccc4)c3F)csc12 [Example 11, 4-Amino-thieno[3,2-d]pyrimidine-7-carboxylic acid (3-benzenesulfonylamino-2,6-difluoro-phenyl)-amide]"
< 1000,288,–,"CCCS(=O)(=O)Nc1ccc(F)c(NC(=O)c2csc3cncnc23)c1F [Example 108, Thieno[3,2-d]pyrimidine-7-carboxylic acid [2,6-difluoro-3-(propane-1-sulfonylamino)-phenyl]-amide]"

# — patent publication US20120157439A1, “RAF INHIBITOR COMPOUNDS AND METHODS OF USE THEREOF” (GENENTECH, INC., priority 2009, published 2012)
